For series [1], the system named is HepG2. In words: Cytotoxicity against human HepG2 cells assessed as compound concentration causing changes in membrane permeability by Cell Health assay. Format: cell-based.
Series [2] can be described thus: Solubility of the compound in FaSSIF at pH 6.5 incubated for 4 hrs by UPLC-MS method. It counts as physicochemical.
Series [3] is described as follows: Permeability of the compound by artificial membrane permeability assay. Conditions: PAMPA; read-out: permeability. It counts as ADME. In general terms: PAMPA measures passive passage across an artificial lipid membrane.
In series [4] the test system is Mycobacterium tuberculosis. As to the kind of experiment: microbe, parasite or virus in culture. The following applies: H37Rv, THP-1, 96 h.
Description: Antitubercular activity against Mycobacterium tuberculosis H37Rv infected in human THP1 macrophages incubated for 4 days by luciferase reporter gene assay
Series [5] deals with Mycobacterium tuberculosis. In words: microbe, parasite or virus in culture. Conditions: 144 h.
Description: Antitubercular activity against Mycobacterium tuberculosis after 6 days by resazurin-based fluorescence assay
The nature of series [6]: Kinetic solubility in pH 7.4 phosphate buffered saline incubated for 1 hr by chemiluminescent nitrogen detection method. It counts as physicochemical. Conditions: read-out: Kinetic_solubility.
A short description of series [7]: in vitro. The following applies: human, HepG2 cells.
Description: Selectivity index, ratio of TC50 for human HepG2 cells to MIC for Mycobacterium tuberculosis
In series [8] the target is Albumin (Homo sapiens, UniProt P02768). As to the kind of experiment: Binding affinity to human serum albumin. Format: ADME. The following applies: isolated protein.
Sequence of Albumin (P02768 whole entry): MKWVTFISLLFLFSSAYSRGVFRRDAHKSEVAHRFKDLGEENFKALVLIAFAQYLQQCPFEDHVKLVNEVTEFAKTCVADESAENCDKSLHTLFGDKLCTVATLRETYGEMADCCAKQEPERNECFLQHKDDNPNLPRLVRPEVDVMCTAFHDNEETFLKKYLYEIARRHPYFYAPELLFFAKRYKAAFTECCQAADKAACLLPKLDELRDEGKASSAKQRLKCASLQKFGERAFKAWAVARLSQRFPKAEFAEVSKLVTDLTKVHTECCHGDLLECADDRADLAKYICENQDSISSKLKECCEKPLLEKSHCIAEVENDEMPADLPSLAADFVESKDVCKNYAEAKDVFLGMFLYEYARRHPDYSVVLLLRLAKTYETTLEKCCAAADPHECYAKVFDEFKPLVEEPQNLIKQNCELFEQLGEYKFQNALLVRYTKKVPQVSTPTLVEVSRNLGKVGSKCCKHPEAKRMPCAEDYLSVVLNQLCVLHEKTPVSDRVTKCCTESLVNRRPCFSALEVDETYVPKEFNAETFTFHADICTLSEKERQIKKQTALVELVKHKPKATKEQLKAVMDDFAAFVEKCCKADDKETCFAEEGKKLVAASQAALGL
Series [9] is described as follows: Lipophilicity, log D of the compound at pH 7.4 by UV-HPLC method. Format: physicochemical. The following applies: buffer.
The nature of series [10]: Cytotoxicity against human HepG2 cells incubated for 48 hrs by Cell-titer Glo assay. It counts as cell-based. The following applies: read-out: TC50.
Series [11] relates to HepG2. As to the kind of experiment: Cytotoxicity against human HepG2 cells assessed as compound concentration causing changes in mitochondrial potential by Cell Health assay. It counts as cell-based.
Series [12] concerns HepG2. In words: Cytotoxicity against human HepG2 cells assessed as compound concentration causing changes in nuclear morphology by Cell Health assay. It counts as cell-based.
Series [13] has as its target Voltage-gated inwardly rectifying potassium channel KCNH2 (Homo sapiens, UniProt Q12809). As to the kind of experiment: Inhibition of human ERG by [3H]dofetilide binding displacement assay.
Series [14] deals with Mycobacterium tuberculosis. Format: functional, H37Rv.
Series [15] can be described thus: Oral bioavailability in C57BL/6 mouse at 50 mg/kg after 1 to 24 hrs by LC-MS/MS method. It counts as ADME, organism-based. Conditions: in vivo.
Series [16] in a line: Cmax in C57BL/6 mouse at 50 mg/kg, po after 1 to 24 hrs by LC-MS/MS method. It counts as ADME, organism-based. Set-up: dose 50 mg/kg, route oral. Conditions: in vivo.
A short description of series [17]: Volume of distribution at steady state in C57BL/6 mouse at 1 mg/kg, iv after 1 to 24 hrs by LC-MS/MS method. Format: ADME, organism-based. The following applies: in vivo, read-out: Vdss.
Series [18] relates to Mus musculus. In words: Tlast in C57BL/6 mouse at 50 mg/kg, po after 1 to 24 hrs by LC-MS/MS method. Format: ADME, organism-based. The following applies: in vivo.
The test system of series [19] is Mus musculus. As to the kind of experiment: Dose normalized AUC (0 to infinity) in C57BL/6 mouse at 1 mg/kg, iv after 1 to 24 hrs by LC-MS/MS method. It counts as ADME, organism-based. The following applies: in vivo.
Series [20] in a line: Tmax in C57BL/6 mouse at 50 mg/kg, po after 1 to 24 hrs by LC-MS/MS method. Conditions: in vivo. Format: ADME, organism-based.
The nature of series [21]: Clearance in C57BL/6 mouse at 1 mg/kg, iv after 1 to 24 hrs by LC-MS/MS method. It counts as ADME, organism-based. The following applies: in vivo.
A short description of series [22]: Half life in C57BL/6 mouse at 1 mg/kg, iv after 1 to 24 hrs by LC-MS/MS method. Conditions: in vivo. Format: ADME, organism-based.
Series [23] is described as follows: AUC (0 to infinity) in C57BL/6 mouse at 1 mg/kg, iv after 1 to 24 hrs by LC-MS/MS method. The following applies: in vivo. It counts as ADME, organism-based. Set-up: dose 1 mg/kg, time infinity, route intravenous.
The nature of series [24]: AUC (0 to infinity) in C57BL/6 mouse at 4 mg/kg, iv after 1 to 24 hrs by LC-MS/MS method. Conditions: in vivo. Format: ADME, organism-based. Set-up: dose 4 mg/kg, route intravenous, time infinity.
Series [25] concerns Mus musculus. In words: Dose normalized AUC (0 to infinity) in C57BL/6 mouse at 4 mg/kg, iv after 1 to 24 hrs by LC-MS/MS method. It counts as ADME, organism-based. Conditions: in vivo.
Series [26] is described as follows: Clearance in C57BL/6 mouse at 4 mg/kg, iv after 1 to 24 hrs by LC-MS/MS method. It counts as ADME, organism-based. Conditions: in vivo.
Series [27] can be described thus: Volume of distribution at steady state in C57BL/6 mouse at 4 mg/kg, iv after 1 to 24 hrs by LC-MS/MS method. It counts as ADME, organism-based. The following applies: in vivo, read-out: Vdss.
A short description of series [28]: Half life in C57BL/6 mouse at 4 mg/kg, iv after 1 to 24 hrs by LC-MS/MS method. Format: ADME, organism-based. The following applies: in vivo.
Series [29] concerns Mycobacterium tuberculosis. It counts as functional, H37Rv. The source holds these as a separate data set.

Structures are written as SMILES. ≈ marks a conversion by molar mass, not a printed value.

Sequence of Voltage-gated inwardly rectifying potassium channel KCNH2 (Q12809 whole entry): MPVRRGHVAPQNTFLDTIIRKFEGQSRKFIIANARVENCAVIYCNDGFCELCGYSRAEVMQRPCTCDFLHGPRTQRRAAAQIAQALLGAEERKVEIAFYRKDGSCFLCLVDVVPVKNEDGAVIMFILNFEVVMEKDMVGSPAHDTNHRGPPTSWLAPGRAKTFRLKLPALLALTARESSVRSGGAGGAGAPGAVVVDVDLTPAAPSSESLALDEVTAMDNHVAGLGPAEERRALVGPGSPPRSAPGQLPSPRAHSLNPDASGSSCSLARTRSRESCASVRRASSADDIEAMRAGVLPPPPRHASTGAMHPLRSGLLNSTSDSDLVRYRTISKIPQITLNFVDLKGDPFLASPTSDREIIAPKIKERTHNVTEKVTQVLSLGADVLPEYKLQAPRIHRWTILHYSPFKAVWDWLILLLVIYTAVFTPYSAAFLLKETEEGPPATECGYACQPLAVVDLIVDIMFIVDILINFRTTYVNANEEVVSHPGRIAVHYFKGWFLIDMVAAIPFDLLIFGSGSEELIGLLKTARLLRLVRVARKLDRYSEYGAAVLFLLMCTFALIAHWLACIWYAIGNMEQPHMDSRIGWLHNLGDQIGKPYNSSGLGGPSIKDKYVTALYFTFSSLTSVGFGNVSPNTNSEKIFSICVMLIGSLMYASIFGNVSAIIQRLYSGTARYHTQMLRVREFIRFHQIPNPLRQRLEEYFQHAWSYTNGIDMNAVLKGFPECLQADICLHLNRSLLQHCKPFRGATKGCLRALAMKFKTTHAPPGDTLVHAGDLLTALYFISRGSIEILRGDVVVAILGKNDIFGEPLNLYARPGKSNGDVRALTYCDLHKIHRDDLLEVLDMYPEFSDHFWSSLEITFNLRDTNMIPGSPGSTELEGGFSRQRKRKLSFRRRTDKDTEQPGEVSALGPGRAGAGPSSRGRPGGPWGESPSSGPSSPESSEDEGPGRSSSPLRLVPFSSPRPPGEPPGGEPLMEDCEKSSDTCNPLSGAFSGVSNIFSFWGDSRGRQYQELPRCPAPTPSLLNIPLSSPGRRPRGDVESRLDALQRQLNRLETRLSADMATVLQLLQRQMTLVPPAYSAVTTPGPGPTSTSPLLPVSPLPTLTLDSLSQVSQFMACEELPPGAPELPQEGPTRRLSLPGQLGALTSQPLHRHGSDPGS

For `Cc1c(CN2CCOCC2)cc(-c2ccc(C(C)C)cc2)n1-c1ccc(F)cc1`, the Activity was over 40 µM in series [1], 98.37% in series [8], over 40 µM in [11] and over 40 µM in [12]. In addition, the solubility at 4 h in series [2] turned out to be 5 µg/mL (≈ 12.7 µM). Further, the Papp in series [3] was 24 ×10⁻⁶ cm/s. Moreover, the IC50 in series [4] was 0.1 µM; in series [13], 10 µM. This compound came in with an MIC in series [5] of 0.12 µM (≈ 0.0471 µg/mL). The solubility kinetic at 1 h in series [6] is under 1 µM. Further, the selectivity ratio in [7] was found to be 333. Besides, in series [9] (read-out: logD), the logD is 8.1. For the same compound, the CC50 at 48 h in [10] was 40 µM.
As to `Cc1c(CN2CCOCC2)cc(-c2ccc(C(C)C)cc2)n1C1CCCCC1`, the Activity in [1] is over 200 µM; in series [8], 98.1%; in series [11] it was over 200 µM; in [12], over 200 µM. Also, the Papp in series [3] worked out at 27 ×10⁻⁶ cm/s. Also, the IC50 in [4] is 0.63 µM; in series [13] it was 50 µM. This compound gave an MIC in [5] of 0.3 µM (≈ 0.114 µg/mL). Further, in [6], the solubility kinetic at 1 h was under 1 µM. In addition, in series [7], the selectivity ratio was over 267. The pH-dependent lipophilicity (logD) in series [9] was 9.13. Besides, the CC50 at 48 h in [10] was over 100 µM.
For `Cc1c(CN2CCOCC2)cc(-c2ccc(C(C)C)cc2)n1C1CC1`, the Activity came out at 40 µM in series [1], 96.49% in series [8], 50 µM in [11] and 40 µM in series [12]. The compound also gave a solubility at 4 h in series [2] of 511 µg/mL (≈ 1510 µM). Further, the figures for the IC50 in [4] and in series [13] were 0.2 µM and 8 µM, respectively. The MIC in series [5] is 0.3 µM (≈ 0.102 µg/mL). The solubility kinetic at 1 h in [6] came to 181 µM (≈ 61.3 µg/mL). Further, the selectivity ratio in series [7] was 67. In addition, the logD in series [9] (read-out: logD) stood at 7.21. Besides, the CC50 at 48 h in series [10] was 20 µM.
Take `Cc1c(CN2CCOCC2)cc(-c2ccc(C(C)C)cc2)n1C1CCCOC1` (stereo unspecified): the Activity in series [1] was over 200 µM; in [14] it was 0.1 log10CFU; in series [8], 92.85%; in series [11] it was over 200 µM; in series [12], over 200 µM. The compound also showed a solubility at 4 h in [2] of 43 µg/mL (≈ 112 µM). The bioavailability in [15] turned out to be 23%. Moreover, the Papp in series [3] amounted to 73 ×10⁻⁶ cm/s. Besides, the Cmax in series [16] turned out to be 548 ng/mL. Besides, the IC50 in series [4] came to 0.3 µM; in series [13] it was 10 µM. Also, the MIC in [5] amounted to 0.15 µM (≈ 0.0574 µg/mL). Moreover, the Vd in series [17] was found to be 3.5 L/kg. The compound further yielded a Tlast in [18] of 8 h. The compound also gave an AUC/dose in series [19] of 138 ng·h/mL/mg/kg. For the same compound, in [20], the time to peak (Tmax) turned out to be 54 min. Also, in series [6], the solubility kinetic at 1 h was found to be 241 µM (≈ 92.2 µg/mL). In series [21], this compound gave a clearance of 125 mL/min/kg. For the same compound, the half-life in series [22] was 24 min. The selectivity ratio in [7] was found to be 333. In addition, in series [9] (read-out: logD), the logD was found to be 6.86. Moreover, in [10], the CC50 at 48 h stood at 50 µM. Moreover, in [23], the AUC(0-inf) was 138 ng·h/mL.
`Cc1c(CN2CCOCC2)cc(-c2ccc(C(C)C)cc2)n1C(C)C`: the Activity in series [1] came to 32 µM; in [14], 1.5 log10CFU; in series [8], 94.11%; in [11], 32 µM; in [12] it was 25 µM. The solubility at 4 h in series [2] is 249 µg/mL (≈ 731 µM). In series [15], the bioavailability stood at 1.2%. In addition, the Papp in [3] was found to be 72 ×10⁻⁶ cm/s. Also, the concentration in series [16] peaked (Cmax) at 177 ng/mL. Also, the MIC in series [5] was 0.15 µM (≈ 0.0511 µg/mL). This compound also displayed a Tlast in [18] of 7.3 h. The Tmax in series [20] was 42 min. Moreover, in series [24], the AUC(0-inf) was found to be 4020 ng·h/mL. The solubility kinetic at 1 h in series [6] is 199 µM (≈ 67.8 µg/mL). For the same compound, the AUC/dose in series [25] turned out to be 1006 ng·h/mL/mg/kg. Also, the clearance in series [26] came to 16.9 mL/min/kg. Besides, the logD in [9] (read-out: logD) amounted to 7.68. In addition, the CC50 at 48 h in series [10] amounted to 20 µM. Further, the Vd in [27] was 1.8 L/kg. The compound further had a half-life in series [28] of 102 min.
`COc1c(N2C[C@@H]3CCCN[C@@H]3C2)c(F)cc2c(=O)c(C(=O)O)cn(C3CC3)c12` [MOXIFLOXACIN]: in [29], the Activity is 3.1 log10CFU.

Broadly, the solubility is the dissolved amount per volume that the medium holds. Low values mean little dissolved substance, high ones much dissolved substance. By IC50 is commonly meant the concentration needed to halve the response being measured. The low end stands for higher potency, the high end for lower potency. What is called logD is lipophilicity at a set pH, counting ionised and neutral species. The bioavailability is the share of a dose that reaches the circulation, judged against a reference dose that is usually intravenous. Read a high bioavailability as good availability. What is called Cmax is the peak of the concentration-time curve. What is called Tmax is the time at which the peak concentration occurs. The clearance is the volume of plasma or blood freed of the substance per unit of time. Read a low clearance as a low capacity for elimination. As usually defined, the half-life is the time needed for the level to fall by half in the phase considered. Low readings indicate rapid decline, high ones slow decline. In general, AUC(0-inf) refers to total exposure, with the tail of the curve extrapolated. Low readings indicate less exposure, high ones more exposure.

For the origin of these results see ChEMBL document CHEMBL4251653, “In vivo potent BM635 analogue with improved drug-like properties” (Eur J Med Chem, 2018).
